The values that follow come from paper PMC11842588, “A first-in-class selective inhibitor of ERK1/2 and ERK5 overcomes drug resistance with a single-molecule strategy” (Signal Transduction and Targeted Therapy, 2025).

Broadly, the IC50 is the concentration needed to halve the response being measured.

In one assay the test system is MDA-MB-231 cells. The assay can be described thus: MTT cell viability assay. The class given is cell-based. Here is the method:
(§1) MDA-MB-468 and MDA-MB-436 cells were cultured in Leibovitz’s L-15 medium supplemented with 10% fetal bovine serum. […] All of the cells were cultured at 37 °C in a humidified atmosphere containing 5% CO2.
(§2) Cancer cells were seeded in a density in 96-well plates (2 × 10^3 cells per well). After incubation for 24 h, cancer cells were treated with compounds (0–20 μM) for 72 h.
Background: Tetrazolium assays rely on reduction of a dye to a coloured formazan, in cell work by metabolically active cells.

The next assay deals with MDA-MB-468 cells. The assay can be described thus: MTT cell viability assay. The class given is cell-based. The protocol: as §1, §2

Take `CN(C)Cc1cccc(Nc2ncc(Cl)c(-c3csc(C(=O)NN4CCOCC4)c3)n2)c1` [SKLB-D18, 4-(5-chloro-2-((3-((dimethylamino)methyl)phenyl)amino)pyrimidin-4-yl)-N-morpholinothiophene-2-carboxamide]: the “Anti-proliferative activity (10 μM, %) MDA-MB-231” value in the assay on MDA-MB-231 cells (10 μM) amounted to 93.44 ± 1.21%. Also, the half-inhibitory concentration (IC50) was 930 ± 110 nM in the assay with MDA-MB-231 cells (Homo sapiens, MDA-MB-231, read-out: IC50 MDA-MB-231, MTT, 72 h) and 1050 ± 130 nM with MDA-MB-468 cells (Homo sapiens, MDA-MB-468, MTT, 72 h). Besides, the “Anti-proliferative activity (10 μM, %) MDA-MB-468” value in the assay on MDA-MB-468 cells (10 μM) stood at 92.18 ± 0.93%.
